The target in the assay is BACE-1 (Homo sapiens, UniProt P56817). Briefly: BACE-1 enzyme assay. In kind it is biochemical. The following applies: Boc-protected compound; enzyme- and cell-based screening.

The values below come from article PMC4412958 (The Open Medicinal Chemistry Journal, 2015).

BACE-1, sequence (P56817 46-501): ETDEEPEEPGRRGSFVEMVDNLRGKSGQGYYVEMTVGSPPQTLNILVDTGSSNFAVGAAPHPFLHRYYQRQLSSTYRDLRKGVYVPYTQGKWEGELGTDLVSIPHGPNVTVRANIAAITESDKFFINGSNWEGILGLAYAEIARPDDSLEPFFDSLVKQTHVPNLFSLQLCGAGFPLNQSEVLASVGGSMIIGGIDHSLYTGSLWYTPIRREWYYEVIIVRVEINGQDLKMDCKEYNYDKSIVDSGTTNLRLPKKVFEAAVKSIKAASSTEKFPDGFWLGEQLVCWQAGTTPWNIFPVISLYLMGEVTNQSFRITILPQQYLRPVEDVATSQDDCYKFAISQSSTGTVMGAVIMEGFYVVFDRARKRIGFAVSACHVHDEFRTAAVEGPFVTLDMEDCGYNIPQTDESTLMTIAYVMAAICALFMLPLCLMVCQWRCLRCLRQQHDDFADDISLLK

On to `Cc1cc2cc(c1)C(=O)N[C@H]([C@H](O)CN(Cc1cccc(C(C)C)c1)C(=O)OC(C)(C)C)CCC/C=C/CCCC2=O` [Compound 27b, (R)-2-Hydroxy-2-((E)-(S)-16-methyl-2,13-dioxo-3-aza-bicyclo[12.3.1]octadeca-1(17),8,14(18),15-tetraen-4-yl)-ethyl-(3-isopropyl-benzyl)-carbamic acid tert-butyl ester], for which the “BACE-1 activity (in words)” value is “inactive”.
